Values after ≈ are worked out from the molar mass of the structure shown. Values joined by “and” are separate entries in the source; they are usually repeats but may differ in a detail not shown here. Identical values can stand only once.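 Protocol summary: plate cells (96-well), add compound at 5 concentrations, incubate 48 h, interpolate endpoints linearly. GI50 = concentration required for 50% inhibition of growth. TGI is the concentration that stops growth completely.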
What was measured:
Assay in all cases: NCI tumour cell line growth inhibition, 48 h
A549 NSCLC = test system: A549 NSCLC
CCRF-CEM leukemia = test system: CCRF-CEM leukemia
COLO 205 colon = test system: COLO 205 colon
DMS 273 small cell lung = test system: DMS 273 small cell lung
M19-MEL melanoma = test system: M19-MEL melanoma
NCI-H23 lung = test system: NCI-H23 lung
OVCAR-3 ovarian = test system: OVCAR-3 ovarian
UO-31 renal = test system: UO-31 renal
NCI/ADR-RES ovarian = test system: NCI/ADR-RES ovarian
SF-268 CNS = test system: SF-268 CNS

Row | SMILES | TGI (A549 NSCLC) | TGI (CCRF-CEM leukemia) | TGI (COLO 205 colon) | TGI (DMS 273 small cell lung) | TGI (M19-MEL melanoma) | TGI (NCI-H23 lung) | TGI (OVCAR-3 ovarian) | TGI (UO-31 renal) | TGI (NCI/ADR-RES ovarian) | TGI (SF-268 CNS) | GI50 (A549 NSCLC) | GI50 (CCRF-CEM leukemia) | GI50 (COLO 205 colon) [mg/L] | GI50 (DMS 273 small cell lung) | GI50 (M19-MEL melanoma) | GI50 (NCI-H23 lung) [mg/L] | GI50 (NCI/ADR-RES ovarian) [mg/L] | GI50 (OVCAR-3 ovarian) [mg/L] | GI50 (SF-268 CNS) | GI50 (UO-31 renal) [mg/L]
1 | CCOC(=O)NC(=O)c1cn(CCSCCOC(=O)NCCCCCCNC(=O)OCCSCCn2cc(C(=O)NC(=O)OCC)c(=O)[nH]c2=O)c(=O)[nH]c1=O | > 100 µM | > 100 µM | > 100 µM | > 100 µM | > 100 µM | > 100 µM | > 100 µM | > 100 µM |  |  |  |  |  |  |  |  |  |  |  | 
2 | COc1cc2c(cc1OC)C(Cc1c3ccccc3cc3ccccc13)N(C)CC2 (stereo not given) | > 100 µM | 93 µM | 29.7 µM | 74.1 µM | 49.8 µM | > 85.3 µM | > 61.1 µM | 57.4 µM | > 74.1 µM | > 100 µM |  |  |  |  |  |  |  |  |  | 
3 | NC(N)=Nc1nc2ccccc2[nH]1 | > 150 mg/L | 111 mg/L | > 150 mg/L | > 150 mg/L | 51 mg/L | > 150 mg/L | > 150 mg/L | 107 mg/L | > 150 mg/L | > 150 mg/L | 61 mg/L | 4.49 mg/L | 61.7 (≈ 352 µM) | 46.4 mg/L | 20.3 mg/L | 121 (≈ 691 µM) | 6.44 (≈ 36.8 µM) | 38.4 (≈ 219 µM) | 128 mg/L | 20 (≈ 114 µM)
4 | Cc1cc(N=Nc2ccc(N=Nc3c(O)c(S(=O)(=O)O)cc4cc(S(=O)(=O)O)ccc34)cc2C)ccc1N=Nc1ccc2cc(S(=O)(=O)O)cc(S(=O)(=O)O)c2c1 | > 100 µM | > 100 µM | > 100 µM | > 100 µM | > 100 µM | > 100 µM | > 100 µM | > 100 µM | > 100 µM | > 100 µM |  |  |  |  |  |  |  |  |  | 
5 | CC1=C2C(O)C(C(C)C(=O)NC(C)C)CCC2(C)C=CC1=O (stereo not given) | > 100 µM | > 100 µM | > 100 µM | > 100 µM |  | > 100 µM | > 100 µM | > 100 µM | > 100 µM | > 100 µM |  |  |  |  |  |  |  |  |  | 
6 | CCNCCCCNCC | > 3750 µM | > 3750 µM | > 3750 µM | > 3750 µM | > 3750 µM | > 3750 µM | > 3750 µM | > 3400 µM | > 3750 µM | > 3750 µM |  |  |  |  |  |  |  |  |  | 
7 | COC(=O)NN1C(=O)C(=P(c2ccccc2)(c2ccccc2)c2ccccc2)C(C(=O)OC)=C1C |  | > 100 µM | > 100 µM | > 100 µM | > 100 µM | > 100 µM | > 100 µM | > 100 µM |  | > 100 µM |  |  |  |  |  |  |  |  |  | 
8 | COc1cc([C@@H]2c3cc4c(c(O)c3C[C@H]3COC(=O)[C@@H]32)OCO4)cc(OC)c1O | > 200 µM | > 35.6 µM | 0.174 µM |  | > 200 µM | 0.637 µM |  | > 77.7 µM |  | > 200 µM | 0.00385 µM | 0.00337 µM and 0.02 µM |  | 0.00198 µM | 0.00461 µM |  |  |  | 0.0043 µM | 
9 | Cn1c(=O)c2nc(N3CCCCC3)cnc2n(C)c1=O | > 100 µM | > 100 µM | > 100 µM |  | > 100 µM | > 100 µM | > 100 µM | > 100 µM |  | > 100 µM |  |  |  |  |  |  |  |  |  | 
10 | O=C(O)CNS(=O)(=O)c1ccc(NC(=O)Nc2ccccc2)cc1 | > 100 µM | > 100 µM | > 100 µM | > 100 µM | > 55.5 µM | > 100 µM | > 100 µM | > 100 µM | > 100 µM | > 100 µM |  |  |  |  |  |  |  |  |  | 

— PubChem BioAssay (NCI)
